A short description of this series: UV-Vis absorption and fluorescence spectroscopy of the Oxazine library. The format is physicochemical. The conditions noted are these: for Extinction coefficient: Beer's Law plots; for Quantum yield: relative, references Oxazine 1, Oxazine 170, Rhodamine 101. Here is the method:
All reagents were purchased from Sigma Aldrich, Fisher Scientific, TCI, or Ark Pharm. Unless otherwise indicated, all commercially available starting materials were used directly without further purification. Analytical thin layer chromatography (TLC) was performed on Millipore ready-to-use plates with silica gel 60 (F254, 32-63 μm). Flash chromatography was performed on Sorbent Technologies silica gel for column chromatography or on a Biotage Isolera Flash System using SNAP Ultra cartridges. High-resolution mass spectra (HRMS) were measured on a ThermoElectron LTQ-Orbitrap high resolution mass spectrometer with a dedicated Accela HPLC system, or an Agilent 6244 time-of-flight LCMS with diode array detector VL+. LCMS and Purity Characterization Mass-to-charge ratio and purity of the Oxazine compounds were characterized on an Agilent 6244 time-of-flight tandem liquid chromatography mass spectroscopy (LCMS) with diode array detector VL+. Sample (10 μL) was injected into a C18 column (Poroshell 120, 4.6×50 mm, 2.7 micron), and eluted with a solvent system of A (H2O, 0.1% FA) and B (MeCN, 01.% FA) at 0.4 mL/min, from A/B=90/10 to 5/95 over 10 min, maintained at A/B=5/95 for additional 5 min. Ions were detected in positive ion mode by setting the capillary voltage at 4 kV and gas temperature at 350° C. Purity was calculated through area under the curve analysis of the absorbance at 254 nm. UV-Vis Absorption and Fluorescence Spectroscopy. UV-Vis spectra were collected with a Cary 50 UV-Vis spectrophotometer at room temperature, using a 1-cm quartz cuvette. Fluorescence spectra were collected on a Cary Eclipse fluorescence spectrophotometer (Agilent Technologies). All absorbance spectra were reference corrected. Extinction coefficient was calculated from Beer's Law plots of absorbance versus concentration. Fluorescence spectra were corrected for the wavelength dependent response of the R928 photomultiplier tube using a manufacturer generated correction file. Relative quantum yields are reported as the average of multiple measurements using multiple references, including Oxazine 1, Oxazine 170, and Rhodamine 101. Physicochemical Property Calculation. Physicochemical partition coefficients (Log D) values at pH 7.4, number of hydrogen bond donors and acceptors, polar surface area, and the number of rotatable bonds were calculated using Marvin and JChem calculator plugins (ChemAxon, Budapest, Hungary). Nerve-Specificity Screening using Direct/Topical Administration Each compound was screened for its tissue-specificity using a previously published direct/topical administration strategy in murine brachial plexus and sciatic nerves.^1 Each compound from the Oxazine library was formulated in the previously utilized co-solvent formulation (10% DMSO, 5% Kolliphor, 65% serum and 20% phosphate buffered saline) at 125 μM. 100 μL of the formulated Oxazine were incubated on the exposed brachial plexus or sciatic nerve for 5 minutes. The fluorophore containing solution was removed and the area was irrigated with saline 18 times to remove any unbound fluorophore. Co-registered fluorescence and color images were collected of each stained area 30 minutes after Oxazine direct/topical administration using a custom built macroscopic imaging system with 620/60 nm excitation and 700/75 nm bandpass emission filters. Custom written MatLab code was used to analyze the tissue specific fluorescence where regions of interest were selected on the nerve, muscle and adipose tissue using the white light images. These regions of interest were then analyzed on the co-registered matched fluorescence images permitting assessment of the nerve to muscle and nerve to adipose ratios in blinded manner. […]

As for `CC/N=c1/cc2oc3cc(NCC)ccc3nc-2cc1C` [LGW01-18, (Z)—N-(7-(ethylamino)-2-methyl-3H-phenoxazin-3-ylidene)ethanaminium], the “Max Abs” value was 617 nm, the “Max Em” value came out at 636 nm, the “Max Ex” value stood at 620 nm and the Extinction coefficient was 60731 M⁻¹ cm⁻¹. The Quantum yield is 32.91%.
Take `CCNc1ccc2nc3ccc(=[N+](CC)CC)cc-3oc2c1` [LGW01-25, N-ethyl-N-(7-(ethylamino)-3H-phenoxazin-3-ylidene)ethanaminium]: the “Max Abs” value came out at 635 nm, the “Max Em” value is given as 660 nm, the “Max Ex” value was 640 nm and the Extinction coefficient was 41771 M⁻¹ cm⁻¹. Also, the Quantum yield stood at 3.31%.
As for `C/N=c1/cc2oc3cc(NC)c(C)cc3nc-2cc1C` [LGW01-61, (Z)—N-(2,8-dimethyl-7-(methylamino)-3H-phenoxazin-3-ylidene)methanaminium], the “Max Abs” value stood at 612 nm, the “Max Em” value was 631 nm, the “Max Ex” value is recorded as 610 nm and the Extinction coefficient is 21783 M⁻¹ cm⁻¹. Moreover, the Quantum yield was found to be 40.27%.
For `CC/N=c1\ccc2nc3ccc(NCC)c(C)c3oc-2c1C` [LGW02-57, (E)-N-(7-(ethylamino)-4,6-dimethyl-3H-phenoxazin-3-ylidene)ethanaminium] the same measures were 635 nm, 653 nm, 635 nm, 56713 M⁻¹ cm⁻¹ and 11.15%.
Take `CC/N=c1/cc2oc3c(C)c(NCC)ccc3nc-2cc1C` [LGW02-58, (Z)—N-(7-(ethylamino)-2,6-dimethyl-3H-phenoxazin-3-ylidene)ethanaminium]: the “Max Abs” value came to 620 nm, the “Max Em” value amounted to 635 nm, the “Max Ex” value is reported as 620 nm and the Extinction coefficient is 42685 M⁻¹ cm⁻¹. In addition, the Quantum yield came to 25.26%.
`CC/N=c1/cc2oc3cc(NCC)cc(C)c3nc-2cc1C` [LGW02-59, (Z)—N-(7-(ethylamino)-2,9-dimethyl-3H-phenoxazin-3-ylidene)ethanaminium]: the “Max Abs” value is 611 nm, the “Max Em” value is given as 636 nm, the “Max Ex” value is listed as 615 nm and the Extinction coefficient came out at 41229 M⁻¹ cm⁻¹. The compound further showed a Quantum yield of 31.74%.
Regarding `CCNc1ccc2nc3ccc(=[N+](CC)CC)cc-3oc2c1C` [LGW02-60, N-ethyl-N-(7-(ethylamino)-6-methyl-3H-phenoxazin-3-ylidene)ethanaminium], the “Max Abs” value is given as 645 nm, the “Max Em” value amounted to 661 nm, the “Max Ex” value was determined as 650 nm and the Extinction coefficient worked out at 65369 M⁻¹ cm⁻¹. In addition, the Quantum yield stood at 8.98%.
On to `CCNc1cc(C)c2nc3ccc(=[N+](CC)CC)cc-3oc2c1` [LGW02-61, N-ethyl-N-(7-(ethylamino)-9-methyl-3H-phenoxazin-3-ylidene)ethanaminium], for which the “Max Abs” value was found to be 630 nm, the “Max Em” value is on record as 658 nm, the “Max Ex” value is reported as 635 nm and the Extinction coefficient amounted to 68548 M⁻¹ cm⁻¹. The compound further displayed a Quantum yield of 6.12%.
As for `CC[N+](CC)=c1ccc2nc3cc4c5c(c3oc-2c1)CCCN5CCC4` [LGW02-86, N-ethyl-N-(2,3,6,7-tetrahydro-1H,5H,12H-quinolizino[1,9-bc]phenoxazin-12-ylidene)ethanaminium], the “Max Abs” value is recorded as 661 nm, the “Max Em” value stood at 680 nm, the “Max Ex” value came to 665 nm and the Extinction coefficient came out at 39472 M⁻¹ cm⁻¹. Besides, the Quantum yield was 13.18%.
As for `c1c2c3c(c4c1N=c1cc5c6c(c1O4)CCC[N+]=6CCC5)CCCN3CCC2` [LGW02-87, 2,3,6,7,12,13,16,17-octahydro-1H,5H,11H,15H-diquinolizino[1,9-bc:1′,9′-hi]phenoxazin-4-ium], the “Max Abs” value is recorded as 678 nm, the “Max Em” value is 690 nm, the “Max Ex” value amounted to 680 nm and the Extinction coefficient worked out at 59937 M⁻¹ cm⁻¹. The Quantum yield stood at 15.03%.
Regarding `CC/N=c1/cc2oc3cc4c(cc3nc-2cc1C)CCCN4CC` [LGW02-91, (Z)—N-(1-ethyl-8-methyl-1,2,3,4-tetrahydro-9H-pyrido[3,2-b]phenoxazin-9-ylidene)ethanaminium], the “Max Abs” value is given as 640 nm, the “Max Em” value is 657 nm, the “Max Ex” value turned out to be 645 nm and the Extinction coefficient was determined as 59971 M⁻¹ cm⁻¹. Further, the Quantum yield was 23.58%.
On to `CCN1CCCc2cc3nc4ccc(=[N+](CC)CC)cc-4oc3cc21` [LGW02-92, N-ethyl-N-(1-ethyl-1,2,3,4-tetrahydro-9H-pyrido[3,2-b]phenoxazin-9-ylidene)ethanaminium], for which the “Max Abs” value is given as 656 nm, the “Max Em” value worked out at 673 nm, the “Max Ex” value came out at 660 nm and the Extinction coefficient was found to be 43659 M⁻¹ cm⁻¹. For the same compound, the Quantum yield is recorded as 9.27%.
For `CCN1CCCc2cc3c(cc21)Oc1cc2c(cc1=N3)CCC[N+]=2CC` [LGW02-99, 1,11-diethyl-3,4,8,9,10,11-hexahydro-2H-dipyrido[3,2-b:2′,3′-i]phenoxazin-1-ium] the same measures were 640 nm, 675 nm, 665 nm, 59971 M⁻¹ cm⁻¹ and 24.67%.
Regarding `CC/N=c1/cc2oc3cc(N4CCCC4)ccc3nc-2cc1C` [LGW03-06, (Z)—N-(2-methyl-7-(pyrrolidin-1-yl)-3H-phenoxazin-3-ylidene)ethanaminium], the “Max Abs” value worked out at 640 nm, the “Max Em” value is reported as 661 nm, the “Max Ex” value worked out at 640 nm and the Extinction coefficient is 35942 M⁻¹ cm⁻¹. The compound also had a Quantum yield of 11.94%.
For the compound `CC/N=c1/cc2oc3cc4c(cc3nc-2cc1C)CCCN4` [LGW03-12, (Z)—N-(8-methyl-1,2,3,4-tetrahydro-9H-pyrido[3,2-b]phenoxazin-9-ylidene)ethanaminium], the “Max Abs” value was 624 nm, the “Max Em” value was found to be 638 nm, the “Max Ex” value was 630 nm and the Extinction coefficient was 40041 M⁻¹ cm⁻¹. The Quantum yield is listed as 27.22%.
Take `CC[N+](CC)=c1ccc2nc3cc4c(cc3oc-2c1)NCCC4` [LGW03-13, N-ethyl-N-(1,2,3,4-tetrahydro-9H-pyrido[3,2-b]phenoxazin-9-ylidene)ethanaminium]: the “Max Abs” value was 641 nm, the “Max Em” value is recorded as 659 nm, the “Max Ex” value came out at 645 nm and the Extinction coefficient turned out to be 64045 M⁻¹ cm⁻¹. The Quantum yield worked out at 6.49%.
As for `CC[N+](CC)=c1ccc2nc3ccc(N4CCCCC4)cc3oc-2c1` [LGW03-18, N-ethyl-N-(7-(piperidin-1-yl)-3H-phenoxazin-3-ylidene)ethanaminium], the “Max Abs” value was 661 nm, the “Max Em” value was found to be 680 nm, the “Max Ex” value worked out at 665 nm and the Extinction coefficient is 66206 M⁻¹ cm⁻¹. In addition, the Quantum yield amounted to 3.49%.
With `CC/N=c1/cc2oc3cc(N4CCCCC4)ccc3nc-2cc1C` [LGW03-21, (Z)—N-(2-methyl-7-(piperidin-1-yl)-3H-phenoxazin-3-ylidene)ethanaminium], the “Max Abs” value came out at 642 nm, the “Max Em” value is 661 nm, the “Max Ex” value stood at 640 nm and the Extinction coefficient was 36049 M⁻¹ cm⁻¹. This compound returned a Quantum yield of 2.25%.
For the compound `c1cc2nc3ccc(=[N+]4CCCC4)cc-3oc2cc1N1CCCC1` [LGW03-31, 1-(7-(pyrrolidin-1-yl)-3H-phenoxazin-3-ylidene)pyrrolidin-1-ium], the “Max Abs” value came to 655 nm, the “Max Em” value worked out at 674 nm, the “Max Ex” value was found to be 655 nm and the Extinction coefficient turned out to be 48226 M⁻¹ cm⁻¹. The compound also came in with a Quantum yield of 15.78%.

The values are drawn from patent US11492359B2, “Near-infrared nerve-sparing fluorophores” (OREGON HEALTH & SCIENCE UNIVERSITY, priority 2018, dated 2022).
